US9179674B2, “Macrocyclic picolinamide compounds with fungicidal activity” (DOW AGROSCIENCES LLC, priority 2013, dated 2015)
Where two headings read alike, the source gives them in different places.

How the values were obtained:
Type in all cases: in vivo
Puccinia triticina = assay: Wheat Brown Rust fungicidal activity (PUCCRT); settings: Puccinia triticina; for pest or weed control at 100 ppm: rate 100 ppm; for pest or weed control at 121.5 g/ha: rate 121.5 g/H
In short: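 Yuma wheat seedlings at first-leaf stage sprayed to run-off (acetone solution in water with 110 ppm Triton X-100) or track-sprayed as EC with 0.1% Trycol 5941; inoculated with P. triticina spores before or after treatment. Overnight dark dew at 22° C., then greenhouse 24° C.; disease severity 0–100% gives percent control vs untreated.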

[1] = tested on: Mycosphaerella graminicola; Anamorph: Septoria tritici; assay: Leaf Blotch of Wheat fungicidal activity (SEPTTR); settings: Zymoseptoria tritici; for pest or weed control at 100 ppm: rate 100 ppm; for pest or weed control at 121.5 g/ha: rate 121.5 g/H
In short: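 Acetone solutions diluted with nine volumes of water containing 110 ppm Triton X-100, sprayed to run-off on first-leaf wheat seedlings (Yuma), inoculated with S. tritici before or after treatment. Plants held in dew chambers, then in a 20 °C greenhouse. Disease severity (0–100%) scored when untreated plants fully symptomatic; % control relative to untreated.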

Phakopsora pachyrhizi = assay: Asian Soybean Rust fungicidal activity (PHAKPA); settings: 25 ppm; for Disease Control PHAKPA 1DP: 1 Day Protectant; for Disease Control PHAKPA 3DC: 3 Day Curative
Protocol: Evaluation of Fungicidal Activity: Asian Soybean Rust (Phakopsora pachyrhizi; Bayer Code PHAKPA)
Technical grades of materials were dissolved in acetone, which were then mixed with nine volumes of water containing 0.011% Tween 20. The fungicide solutions were applied onto soybean seedlings using an automated booth sprayer to run-off. All sprayed plants were allowed to air dry prior to further handling.
Soybean plants (variety Williams 82) were grown in soil-less Metro mix, with one plant per pot. Two weeks old seedlings were used for testing. Plants were inoculated either 3 days prior to or 1 day after fungicide treatments. Plants were incubated for 24 h in a dark dew room at 22° C. and 100% RH then transferred to a growth room at 23° C. for disease to develop. Disease severity was assessed on the sprayed leaves.

[2] = 24 h, 1 Day Protectant, read-out: Disease control PUCCRT 1DP
[3] = 72 h, 3 Day Curative, read-out: Disease control PUCCRT 3DC
[4] = 24 h, 1 Day Protectant, read-out: Disease control SEPTTR 1DP
[5] = 72 h, 3 Day Curative, read-out: Disease control SEPTTR 3DC

Structure (SMILES) | pest or weed control at 100 ppm (Puccinia triticina; [2]) | pest or weed control at 121.5 g/ha (Puccinia triticina; [2]) | pest or weed control at 100 ppm (Puccinia triticina; [3]) | pest or weed control at 121.5 g/ha (Puccinia triticina; [3]) | pest or weed control at 100 ppm [1, 4] | pest or weed control at 121.5 g/ha [1, 4] | pest or weed control at 100 ppm [1, 5] | pest or weed control at 121.5 g/ha [1, 5] | Disease Control PHAKPA 1DP (Phakopsora pachyrhizi) | Disease Control PHAKPA 3DC (Phakopsora pachyrhizi)
COc1ccnc(C(=O)N[C@H]2COC[C@H](CCC(C)C)[C@@H](OCC(C)C)[C@H](C)OC2=O)c1OCOC(C)=O [Compound F106] | 80 to 100% | 80 to 100% | 80 to 100% | 80 to 100% | 80 to 100% | 80 to 100% | 80 to 100% | 80 to 100% | A (80-100) | A (80-100)
COc1ccnc(C(=O)N[C@H]2COC[C@H](Cc3cc(F)c(F)c(F)c3)[C@@H](OCC(C)C)[C@H](C)OC2=O)c1OCOC(C)=O [Compound F109] | 80 to 100% | 80 to 100% | 80 to 100% | 80 to 100% | 80 to 100% | 80 to 100% | 80 to 100% | 80 to 100% | A (80-100) | B (More than 0-Less than 80)
